Experimental findings from ChEMBL document CHEMBL5465560, “Selectivity Literature for EUbOPEN Chemogenomic Library” (2024) are described below.

Assay [1] has as its target CDC7/DBF4 (Cell division cycle 7-related protein kinase/Activator of S phase kinase) (Homo sapiens) (UniProt Q9UBU7+O00311). Kind of assay: Selectivity interaction (ProQinase) EUB0000171b CDC7. Format: protein-complex assay.
In assay [2] the target is Bone morphogenetic protein receptor type-1A (Homo sapiens, UniProt P36894). As to conditions: at 10 µM.
Chain of Bone morphogenetic protein receptor type-1A (P36894 whole entry): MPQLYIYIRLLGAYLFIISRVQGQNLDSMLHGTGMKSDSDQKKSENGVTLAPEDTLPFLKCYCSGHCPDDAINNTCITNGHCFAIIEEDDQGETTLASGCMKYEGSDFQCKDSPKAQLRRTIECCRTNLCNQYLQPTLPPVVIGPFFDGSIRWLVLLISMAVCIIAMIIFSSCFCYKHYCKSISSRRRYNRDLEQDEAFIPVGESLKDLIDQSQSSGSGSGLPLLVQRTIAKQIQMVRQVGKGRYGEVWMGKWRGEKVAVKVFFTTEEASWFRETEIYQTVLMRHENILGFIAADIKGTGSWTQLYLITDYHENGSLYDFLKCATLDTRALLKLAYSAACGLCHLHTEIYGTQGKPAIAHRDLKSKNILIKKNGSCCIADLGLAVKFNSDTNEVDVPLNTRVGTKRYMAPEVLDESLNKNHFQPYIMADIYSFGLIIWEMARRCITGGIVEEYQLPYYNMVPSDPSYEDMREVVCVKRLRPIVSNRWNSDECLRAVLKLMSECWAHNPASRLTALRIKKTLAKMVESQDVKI
A short description of assay [3]: Selectivity interaction (KinomeScan (DiscoverX)) EUB0000092b CDPK1. The note with it: at 10 µM.
Assay [4] addresses T1, Hormonally up-regulated neu tumor-associated kinase (Homo sapiens) (UniProt P57058).
T1 sequence (whole entry): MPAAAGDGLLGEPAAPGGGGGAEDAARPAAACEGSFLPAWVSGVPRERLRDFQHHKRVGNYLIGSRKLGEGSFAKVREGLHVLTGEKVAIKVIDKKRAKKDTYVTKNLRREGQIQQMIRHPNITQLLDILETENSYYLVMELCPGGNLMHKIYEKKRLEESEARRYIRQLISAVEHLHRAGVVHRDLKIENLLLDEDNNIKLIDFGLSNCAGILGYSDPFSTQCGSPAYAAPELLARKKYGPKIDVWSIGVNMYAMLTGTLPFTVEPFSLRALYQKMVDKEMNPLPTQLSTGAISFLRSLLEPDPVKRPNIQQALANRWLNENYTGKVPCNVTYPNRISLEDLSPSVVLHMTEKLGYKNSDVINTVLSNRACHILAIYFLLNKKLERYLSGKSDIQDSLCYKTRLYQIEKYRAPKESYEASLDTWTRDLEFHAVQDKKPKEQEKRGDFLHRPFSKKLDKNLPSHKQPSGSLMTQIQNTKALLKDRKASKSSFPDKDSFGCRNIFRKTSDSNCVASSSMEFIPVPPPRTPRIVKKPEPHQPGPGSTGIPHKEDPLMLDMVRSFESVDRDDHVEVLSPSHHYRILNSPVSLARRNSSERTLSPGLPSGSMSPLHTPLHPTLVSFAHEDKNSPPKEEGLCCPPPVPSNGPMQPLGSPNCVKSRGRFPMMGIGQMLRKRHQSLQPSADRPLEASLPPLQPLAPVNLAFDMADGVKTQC
Kind of assay: Selectivity interaction (KinomeScan (DiscoverX)) EUB0000045b HUNK.

The target in assay [5] is Maternal embryonic leucine zipper kinase (Homo sapiens) (UniProt Q14680). Kind of assay: Selectivity interaction (KinomeScan (DiscoverX)) EUB0000666a MELK. As to conditions: at 10 µM.
Chain of Maternal embryonic leucine zipper kinase (Homo sapiens) (Q14680 whole entry, looked up): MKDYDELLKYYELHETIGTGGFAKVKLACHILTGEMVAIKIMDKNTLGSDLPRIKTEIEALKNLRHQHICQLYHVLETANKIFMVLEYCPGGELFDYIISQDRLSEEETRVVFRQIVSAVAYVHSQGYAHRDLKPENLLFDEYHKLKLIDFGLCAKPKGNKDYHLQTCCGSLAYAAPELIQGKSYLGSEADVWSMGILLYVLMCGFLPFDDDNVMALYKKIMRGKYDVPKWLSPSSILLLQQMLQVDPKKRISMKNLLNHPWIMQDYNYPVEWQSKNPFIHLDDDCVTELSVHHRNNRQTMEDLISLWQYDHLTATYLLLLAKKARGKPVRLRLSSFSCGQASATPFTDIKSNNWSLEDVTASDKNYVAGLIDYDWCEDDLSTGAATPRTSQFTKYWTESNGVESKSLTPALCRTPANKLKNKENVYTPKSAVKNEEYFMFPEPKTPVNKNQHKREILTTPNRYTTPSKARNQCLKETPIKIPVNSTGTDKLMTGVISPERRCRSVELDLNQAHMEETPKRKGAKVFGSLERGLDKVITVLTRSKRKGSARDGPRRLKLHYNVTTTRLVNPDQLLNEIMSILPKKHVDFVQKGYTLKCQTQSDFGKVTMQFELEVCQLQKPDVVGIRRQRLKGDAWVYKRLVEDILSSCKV
Assay [6] has as its target T2, Serine/threonine-protein kinase tousled-like 1 (Homo sapiens) (UniProt Q9UKI8).
T2 sequence (whole entry): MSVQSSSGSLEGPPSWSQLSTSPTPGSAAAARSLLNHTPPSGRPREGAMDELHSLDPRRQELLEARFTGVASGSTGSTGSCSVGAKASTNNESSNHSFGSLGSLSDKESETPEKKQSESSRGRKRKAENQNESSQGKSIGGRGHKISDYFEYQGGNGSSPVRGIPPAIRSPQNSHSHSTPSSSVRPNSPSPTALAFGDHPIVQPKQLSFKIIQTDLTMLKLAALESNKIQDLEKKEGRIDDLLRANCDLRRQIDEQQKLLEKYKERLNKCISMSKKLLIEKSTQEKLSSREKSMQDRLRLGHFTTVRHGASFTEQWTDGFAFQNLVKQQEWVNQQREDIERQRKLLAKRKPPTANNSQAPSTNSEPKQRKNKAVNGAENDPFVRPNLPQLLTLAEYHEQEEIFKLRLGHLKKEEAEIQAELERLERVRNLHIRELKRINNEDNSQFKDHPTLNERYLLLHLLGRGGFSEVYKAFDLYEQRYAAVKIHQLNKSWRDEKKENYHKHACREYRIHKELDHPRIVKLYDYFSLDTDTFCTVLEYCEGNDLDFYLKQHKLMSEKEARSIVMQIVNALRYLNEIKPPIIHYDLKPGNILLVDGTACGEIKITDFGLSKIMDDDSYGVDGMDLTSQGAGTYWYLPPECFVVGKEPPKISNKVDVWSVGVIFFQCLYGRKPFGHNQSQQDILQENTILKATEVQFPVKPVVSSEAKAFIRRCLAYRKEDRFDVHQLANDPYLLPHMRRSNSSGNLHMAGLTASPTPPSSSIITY
Kind of assay: Selectivity interaction (ActivX KiNativ screen (kinase selectivity in THP-1 cell lysates)) EUB0000639a TLK1. The class given is subcellular. As to conditions: lysate, at 5 µM.

Assay [7] concerns the target T3, Serine/threonine-protein kinase TAO2 (Homo sapiens) (UniProt Q9UL54).
T3 sequence (whole entry): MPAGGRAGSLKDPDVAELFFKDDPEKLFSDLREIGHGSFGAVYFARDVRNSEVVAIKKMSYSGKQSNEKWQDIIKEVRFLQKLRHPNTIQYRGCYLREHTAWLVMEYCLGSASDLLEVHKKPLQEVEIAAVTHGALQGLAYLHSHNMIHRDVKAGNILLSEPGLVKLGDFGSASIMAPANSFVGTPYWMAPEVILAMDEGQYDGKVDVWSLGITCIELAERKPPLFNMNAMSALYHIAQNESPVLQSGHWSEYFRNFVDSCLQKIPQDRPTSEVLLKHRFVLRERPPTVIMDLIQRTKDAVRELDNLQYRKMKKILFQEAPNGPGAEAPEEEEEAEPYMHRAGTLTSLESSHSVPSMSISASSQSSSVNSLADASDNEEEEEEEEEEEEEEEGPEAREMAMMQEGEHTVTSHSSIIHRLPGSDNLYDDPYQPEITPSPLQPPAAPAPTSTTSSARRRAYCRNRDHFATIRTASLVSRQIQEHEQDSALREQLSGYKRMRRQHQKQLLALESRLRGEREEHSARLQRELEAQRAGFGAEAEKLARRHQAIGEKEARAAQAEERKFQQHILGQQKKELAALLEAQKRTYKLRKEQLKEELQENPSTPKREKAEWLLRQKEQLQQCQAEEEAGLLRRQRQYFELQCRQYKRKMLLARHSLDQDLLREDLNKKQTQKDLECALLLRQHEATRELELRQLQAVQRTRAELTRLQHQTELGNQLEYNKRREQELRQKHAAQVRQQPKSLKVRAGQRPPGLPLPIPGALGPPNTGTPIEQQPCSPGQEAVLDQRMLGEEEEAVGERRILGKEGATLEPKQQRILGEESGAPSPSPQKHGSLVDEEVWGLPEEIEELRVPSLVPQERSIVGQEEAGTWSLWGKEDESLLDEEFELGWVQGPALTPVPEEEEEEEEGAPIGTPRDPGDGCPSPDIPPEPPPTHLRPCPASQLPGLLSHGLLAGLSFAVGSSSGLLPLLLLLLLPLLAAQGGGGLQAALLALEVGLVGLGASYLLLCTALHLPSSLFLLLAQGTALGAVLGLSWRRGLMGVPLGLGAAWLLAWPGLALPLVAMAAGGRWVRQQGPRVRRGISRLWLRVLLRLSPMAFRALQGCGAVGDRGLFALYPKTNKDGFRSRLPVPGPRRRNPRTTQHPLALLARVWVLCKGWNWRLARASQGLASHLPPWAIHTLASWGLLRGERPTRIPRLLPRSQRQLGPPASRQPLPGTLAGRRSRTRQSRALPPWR
Kind of assay: Selectivity interaction (KinomeScan (DiscoverX)) EUB0000229b TAOK2. The note with it: at 10 µM.

Chain of CDC7/DBF4 (Cell division cycle 7-related protein kinase/Activator of S phase kinase) (Homo sapiens) (O00311 whole entry, looked up): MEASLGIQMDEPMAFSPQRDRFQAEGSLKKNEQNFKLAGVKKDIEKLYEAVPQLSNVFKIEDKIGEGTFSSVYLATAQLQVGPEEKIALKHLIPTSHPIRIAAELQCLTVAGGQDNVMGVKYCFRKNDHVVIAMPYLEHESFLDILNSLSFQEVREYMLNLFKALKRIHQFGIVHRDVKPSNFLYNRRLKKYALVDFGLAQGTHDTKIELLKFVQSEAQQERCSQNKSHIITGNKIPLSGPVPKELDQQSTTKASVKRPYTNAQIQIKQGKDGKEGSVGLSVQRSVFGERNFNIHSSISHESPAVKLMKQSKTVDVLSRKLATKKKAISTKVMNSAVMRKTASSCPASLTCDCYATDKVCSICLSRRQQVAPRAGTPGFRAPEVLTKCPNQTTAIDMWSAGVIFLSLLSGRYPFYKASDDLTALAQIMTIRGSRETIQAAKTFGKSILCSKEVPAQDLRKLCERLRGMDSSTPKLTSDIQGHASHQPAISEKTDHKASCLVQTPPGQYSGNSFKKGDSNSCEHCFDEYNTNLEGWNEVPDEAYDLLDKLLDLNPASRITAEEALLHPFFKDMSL
Chain of CDC7/DBF4 (Cell division cycle 7-related protein kinase/Activator of S phase kinase) (Homo sapiens) (Q9UBU7 whole entry, looked up): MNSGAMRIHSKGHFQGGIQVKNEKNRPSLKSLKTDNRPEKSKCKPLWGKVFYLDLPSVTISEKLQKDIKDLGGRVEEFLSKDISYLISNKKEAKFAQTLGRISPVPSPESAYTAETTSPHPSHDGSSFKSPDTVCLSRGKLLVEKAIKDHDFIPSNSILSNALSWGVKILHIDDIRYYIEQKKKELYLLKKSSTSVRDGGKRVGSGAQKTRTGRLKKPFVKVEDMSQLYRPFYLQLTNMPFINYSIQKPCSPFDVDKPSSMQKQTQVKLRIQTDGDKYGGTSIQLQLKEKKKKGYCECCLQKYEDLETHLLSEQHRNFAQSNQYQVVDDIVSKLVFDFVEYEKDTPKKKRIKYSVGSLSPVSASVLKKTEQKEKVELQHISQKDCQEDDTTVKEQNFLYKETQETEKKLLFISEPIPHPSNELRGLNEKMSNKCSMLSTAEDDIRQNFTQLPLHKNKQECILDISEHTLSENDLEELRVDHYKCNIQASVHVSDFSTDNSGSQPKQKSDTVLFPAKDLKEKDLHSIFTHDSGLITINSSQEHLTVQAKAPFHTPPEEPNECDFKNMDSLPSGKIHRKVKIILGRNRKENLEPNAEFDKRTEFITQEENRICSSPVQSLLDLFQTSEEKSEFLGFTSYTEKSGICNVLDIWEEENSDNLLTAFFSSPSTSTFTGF

For `C=CC(=O)Nc1cccc(C(=O)Nc2ccc(Nc3cc(-c4[nH]c(SC)nc4C)ccn3)cc2)c1`, the % of control in assay [1] (at 1 µM) is 94%; in assay [1] (at 5 µM), 89%.

In assay [2], `Cc1cc([C@@H](C)Nc2ccccc2C(=O)O)c2nc(N3CCOCC3)cc(=O)n2c1` [AZD-6482] yielded a % of control of 98%.

`CCC(=O)N1CCN(c2ccc(-n3c(=O)ccc4cnc5ccc(-c6cnc7ccccc7c6)cc5c43)cc2C(F)(F)F)CC1` gave a % of control in assay [3] of 36%.

As for `C=CC(=O)Nc1cc(-n2c(=O)ccc3cnc4ccc(-c5ccc(NS(C)(=O)=O)cc5)cc4c32)ccc1C`, the % of control in assay [4] (at 1 µM) worked out at 85%; in assay [4] (at 10 µM) it was 100%.

Take `O=C(NOC[C@H](O)CO)c1ccc(F)c(F)c1Nc1ccc(I)cc1F`: the % of control in assay [5] amounted to 80%.

Turning to `CC[C@@H]1[C@H](F)C(=O)N[C@@H]1COc1nccc2cc(C(N)=O)c(OC)cc12` [ZIMLOVISERTIB], in assay [6], the % of inhibition came to 74%.

For `COc1cc(N(C)c2ccnc3ccc(C(F)(F)F)cc23)cc(OC)c1OC`, the % binding in assay [7] turned out to be 80%.
